Tested on: Salinispora tropica NPS021184
Test: Production of Salinosporamide A and analogs in shake flask or tube culture; titers by HPLC of EtOAc extract
Conditions: for % Increase (+) or % decrease (−) of maximum titer: Ex.1 Table 1; for % Increase (+) or % decrease (−) of max titer: Ex.1 Table 2; for % increase/decrease of titer / relative % change (of % relative to Sal A): Ex.2 Table 3; for % Increase (+) or % decrease (−) of average max titer: Ex.2 Table 4; for relative decrease in production (relative to Salinosporamide A): 208 μg/L CoCl2·6H2O in seed medium, 52 μg/L in production medium vs no cobalt in seed
Description: Seed cultures were prepared by inoculating frozen stock of Salinispora tropica NPS021184 into seed medium.
The first seed cultures (either 10 mL medium in a 50-mL tube or 100 mL medium in a 500-mL Erlenmeyer flask) were incubated for 3 to 4 days before inoculating into the second seed media with the same composition as the first seed cultures. The second seed cultures (100 mL medium in a 500-mL Erlenmeyer flask) were incubated for two days before inoculating into the production medium (100 mL medium in a 500-mL Erlenmeyer flask).
The chemically defined salt formulation included: […]
3.5 mL of the fermentation culture was mixed with equal volume of EtOAc in an extraction tube to extract the various metabolites from the production culture. The mixture was shaken on a shaker for one hr. An aliquot of the extract (1 mL) was removed and dried under a stream of nitrogen. The dried extract was stored at −20° C. freezer before HPLC analysis. The dried extract was resuspended in 320 μL DMSO and injected into HPLC using the 00TF14 method for analysis.
The production of Salinosporamide A, NPI-0047 and NPI-2065 was monitored by Agilent HP1100 HPLC using an ACE C-18 reversed-phase column (4.6×150 mm), and solvent system consisting of water (0.01% TFA) as solvent A and acetonitrile (0.01% TFA) as solvent B. The elution was started at 100% solvent A for 1 min, 100% solvent A to 35% solvent A gradient in 7 min, held at 35% solvent A for 11 min, 35% solvent A to 100% solvent B in 8 min and held at 100% solvent B for 9 min at a flow rate of 1.5 mL/min with the detector wavelength set at 210 nm and column temperature 35° C.
The first seed cultures (either 10 mL medium in a 50-mL tube or 100 ml medium in a 500-ml Erlenmeyer flask) were incubated for 3 to 4 days before inoculating into the second seed media with the same composition as the first seed cultures. The second seed cultures (100 mL medium in a 500-mL Erlenmeyer flask) were incubated for two days before inoculating into the production medium (100 mL medium in a 500-mL Erlenmeyer flask).
The first seed cultures (either 10 mL medium in a 50-ml tube or 100 mL medium in a 500-mL Erlenmeyer flask) were incubated for 3 to 4 days before inoculating into the second seed media with the same composition as the first seed cultures. The second seed cultures (100 mL medium in a 500-mL Erlenmeyer flask) were incubated for two days before inoculating into production medium (100 mL medium in a 500-mL Erlenmeyer flask).
3.5 mL of the fermentation culture was mixed with equal volume of EtOAc in an extraction tube to extract the various metabolites from the production culture. The mixture was shaken for 1 hr. An aliquot of the extract (1 mL) was removed and dried under a stream of nitrogen. The dried extract was stored at −20° C. freezer before HPLC analysis. The dried extract was resuspended in […] DMSO and injected into HPLC using the TFS7 method for analysis.
The production of Salinosporamide A, NPI-0047 and NPI-2065 was monitored by Agilent HP1100 HPLC using an ACE C-18 reversed-phase column (4.6×150 mm), and isocratic solvent system consisting of 67% water (0.01% TFA) and 33% acetonitrile (0.01% TFA). The flow rate was 1.5 mL/min for 15 min with the detector wavelength set at 210 nm and column temperature 35° C.
3.5 mL of the fermentation culture was mixed with equal volume of EtOAc in an extraction tube to extract the various metabolites from the production culture. The mixture was shaken on the shaker for 1 hr. An aliquot of the extract (1 mL) was removed and dried under a stream of nitrogen. The dried extract was stored at −20° C. freezer before HPLC analysis. The dried extract was resuspended in 320 μL DMSO and injected into HPLC using the TFS7 method for analysis. […]

[1] = 104 μg/L CoCl2·6H2O in production medium vs no addition
[2] = 1.04 mg/L CoCl2·6H2O in production medium vs no addition
[3] = 10.4 mg/L CoCl2·6H2O in production medium vs no addition
[4] = 2.6 μg/L CoCl2·6H2O in production medium vs control
[5] = 5.2 μg/L CoCl2·6H2O in production medium vs control
[6] = 6.5 μg/L CoCl2·6H2O in production medium vs control
[7] = 13 μg/L CoCl2·6H2O in production medium vs control
[8] = 26 μg/L CoCl2·6H2O in production medium vs control
[9] = 52 μg/L CoCl2·6H2O in production medium vs control
[10] = 104 μg/L CoCl2·6H2O in production medium vs control
[11] = 208 μg/L CoCl2·6H2O in production medium vs control
[12] = 416 μg/L CoCl2·6H2O in production medium vs control
[13] = seed CoCl2·6H2O 0 μg/L (reference)
[14] = seed CoCl2·6H2O 2.6 μg/L vs 0 μg/L
[15] = seed CoCl2·6H2O 5.2 μg/L vs 0 μg/L
[16] = seed CoCl2·6H2O 13 μg/L vs 0 μg/L
[17] = seed CoCl2·6H2O 26 μg/L vs 0 μg/L
[18] = seed CoCl2·6H2O 52 μg/L vs 0 μg/L
[19] = seed CoCl2·6H2O 104 μg/L vs 0 μg/L
[20] = seed CoCl2·6H2O 208 μg/L vs 0 μg/L
[21] = seed CoCl2·6H2O 416 μg/L vs 0 μg/L
[22] = CoCl2·6H2O seed 0 / production 52 μg/L vs no cobalt
[23] = CoCl2·6H2O seed 208 μg/L / production 52 μg/L vs no cobalt
[24] = Ex.2, cobalt in both seed (208 μg/L) and production (52 μg/L) media vs media without cobalt
[25] = Ex.2, cobalt in seed and production media vs cobalt in production medium only

For `CC[C@H]1C(=O)N[C@@]2([C@@H](O)[C@@H]3C=CCCC3)C(=O)O[C@@]12C` [NPI-0047, Salinosporamide B], the “% Increase (+) or % decrease (−) of maximum titer” value [1] was −65.9%, the “% Increase (+) or % decrease (−) of maximum titer” value [2] was −67.4% and the “% Increase (+) or % decrease (−) of maximum titer” value [3] was −71.3%. For the same compound, the “% Increase (+) or % decrease (−) of max titer” value [4] was −18.6%, the “% Increase (+) or % decrease (−) of max titer” value [5] was −41.2% and the “% Increase (+) or % decrease (−) of max titer” value [6] was −38.2%. For the same compound, the “% Increase (+) or % decrease (−) of max titer” value [7] was −52.0%, the “% Increase (+) or % decrease (−) of max titer” value [8] was −63.7% and the “% Increase (+) or % decrease (−) of max titer” value [9] was −69.6%. For the same compound, the “% Increase (+) or % decrease (−) of max titer” value [10] was −65.7%, the “% Increase (+) or % decrease (−) of max titer” value [11] was −69.6% and the “% Increase (+) or % decrease (−) of max titer” value [12] was −73.5%. For the same compound, the “reduction of concentration in the fermentation” value (from here on “reduction of concentration”) (Ex.14, 0.22 μM vitamin B12 added to production medium (Instant Ocean based)) was 74%, the reduction of production (Ex.1, 52 μg/L cobalt concentration in production medium vs control) was 69.6% and the decrease in production (Ex.1, 104 μg/L CoCl2·6H2O added to production medium vs none) was 66%. The “% increase/decrease of titer” value [13] was 0.0%, the “relative % change (of % relative to Sal A)” value (shortened to “relative % change”) [13] was 0.0% and the “% increase/decrease of titer” value [14] was 5.9%. The “relative % change” value [14] was 4.2%, the “% increase/decrease of titer” value [15] was 2.0% and the “relative % change” value [15] was −2.7%. The “% increase/decrease of titer” value [16] was −17.2%, the “relative % change” value [16] was −20.2% and the “% increase/decrease of titer” value [17] was −2.3%. The “relative % change” value [17] was −28.4%, the “% increase/decrease of titer” value [18] was −21.6% and the “relative % change” value [18] was −36.1%. For the same compound, the “% increase/decrease of titer” value [19] was −9.2%, the “relative % change” value [19] was −29.9% and the “% increase/decrease of titer” value [20] was −11.9%. For the same compound, the “relative % change” value [20] was −41.3%, the “% increase/decrease of titer” value [21] was −10.4% and the “relative % change” value [21] was −21.5%. The “% Increase (+) or % decrease (−) of average max titer” value [22] was −71.7%, the “% Increase (+) or % decrease (−) of average max titer” value [23] was −78.0% and the “reduction of production by cobalt” value (Ex.21, NPS21184, CoCl2·6H2O 208 μg/L seed, 52 μg/L production vs no cobalt) was 91%. For the same compound, the “relative decrease in production (relative to Salinosporamide A)” value (Ex.2) was 41.3%, the reduction of production [24] was 78.0% and the reduction of production [25] was 22.2%.

In the case of `C[C@@]12OC(=O)[C@]1([C@@H](O)[C@@H]1C=CCCC1)NC(=O)[C@H]2CCCl` [NPI-2065], the “% Increase (+) or % decrease (−) of maximum titer” value [1] was −21.0%, the “% Increase (+) or % decrease (−) of maximum titer” value [2] was −12.2% and the “% Increase (+) or % decrease (−) of maximum titer” value [3] was −30.8%. The “% Increase (+) or % decrease (−) of max titer” value [4] was −7.6%, the “% Increase (+) or % decrease (−) of max titer” value [5] was −1.5% and the “% Increase (+) or % decrease (−) of max titer” value [6] was −6.1%. The “% Increase (+) or % decrease (−) of max titer” value [7] was −1.5%, the “% Increase (+) or % decrease (−) of max titer” value [8] was “+3.0%” and the “% Increase (+) or % decrease (−) of max titer” value [9] was −4.6%. For the same compound, the “% Increase (+) or % decrease (−) of max titer” value [10] was −1.5%, the “% Increase (+) or % decrease (−) of max titer” value [11] was −6.1% and the “% Increase (+) or % decrease (−) of max titer” value [12] was −15.2%. For the same compound, the “reduction of concentration” value (Ex.14, vitamin B12 in Instant Ocean based medium) was 30%, the “reduction of concentration” value (Ex.15, Vitamin B12 or CoCl2·6H2O at 0.22 μM in salt formulation based medium) was “no reduction” and the “maximum inhibition of production” value (Ex.1, 416 μg/L, highest cobalt concentration tested in production medium) was 15%. For the same compound, the inhibition of production (Ex.1, 10.4 mg/L CoCl2·6H2O in production medium vs none) was 30.8%, the “% increase/decrease of titer” value [13] was 0.0% and the “relative % change” value [13] was 0.0%. The “% increase/decrease of titer” value [14] was 1.7%, the “relative % change” value [14] was 0.0% and the “% increase/decrease of titer” value [15] was 4.2%. The “relative % change” value [15] was −0.5%, the “% increase/decrease of titer” value [16] was 5.9% and the “relative % change” value [16] was 3.5%. For the same compound, the “% increase/decrease of titer” value [17] was 23.1%, the “relative % change” value [17] was 3.5% and the “% increase/decrease of titer” value [18] was 17.7%. For the same compound, the “relative % change” value [18] was 7.9%, the “% increase/decrease of titer” value [19] was 15.5% and the “relative % change” value [19] was −0.5%. The “% increase/decrease of titer” value [20] was 19.7%, the “relative % change” value [20] was −1.4% and the “% increase/decrease of titer” value [21] was 6.2%. For the same compound, the “relative % change” value [21] was −3%, the “% Increase (+) or % decrease (−) of average max titer” value [22] was −37.2% and the “% Increase (+) or % decrease (−) of average max titer” value [23] was −44.9%. The “relative decrease in production (relative to Salinosporamide A)” value (Ex.2) was 1.4%, the reduction of production [24] was 44.9% and the reduction of production [25] was 12.2%.
